# Patent EP0326331B1, “Substituted quinolines and cinnolines” (Dow AgroSciences LLC, priority 1988, dated 1989)
# Legend:
# Assay type in all cases: in vivo
# [1] = test system: Erysiphe graminis tritici (powdery mildew); experiment: Test 1 greenhouse foliar spray screen, powdery mildew on wheat; details: disease control rating, foliar spray on wheat, 400 ppm (+++ at 100 ppm)
# [2] = test system: Pyricularia oryzae (rice blast); experiment: whole plant or invertebrate; details: disease control rating, foliar spray on rice, 400 ppm (+++ at 100 ppm)
# [3] = test system: Puccinia recondita tritici (leaf rust); experiment: Test 1 greenhouse foliar spray screen, leaf rust on wheat; details: disease control rating, foliar spray on wheat, 400 ppm (+++ at 100 ppm)
# [4] = test system: Botrytis cinerea (gray mold); experiment: Test 1 greenhouse foliar spray screen, gray mold on grape berries; details: disease control rating, spray on grape berries, 400 ppm (+++ at 100 ppm)
# [5] = test system: Pseudoperonospora cubensis (downy mildew); experiment: Test 1 greenhouse foliar spray screen, downy mildew on squash; details: for DOWN MDEW: disease control rating, foliar spray on squash, 400 ppm (+++ at 100 ppm)
# [6] = test system: Cercospora beticola (leaf spot); experiment: Test 1 greenhouse foliar spray screen, leaf spot on sugar beet; details: disease control rating, foliar spray on sugar beet, 400 ppm (+++ at 100 ppm)
# [7] = test system: Venturia inaequalis (apple scab); experiment: Test 1 greenhouse foliar spray screen, apple scab on apple seedling; details: disease control rating, foliar spray on apple seedling, 400 ppm (+++ at 100 ppm)
# [8] = test system: Septoria tritici (leaf blotch); experiment: Test 1 greenhouse foliar spray screen, leaf blotch on wheat; details: disease control rating, foliar spray on wheat, 400 ppm (+++ at 100 ppm)
# [9] = test system: southern armyworm (Spodopetra eridania Cramer); experiment: Mite/insect screen, SAW; details: Spodoptera eridania, percent mortality, SAW, read-out: SAW RESULTS %; for mortality at 200 ppm: SM & MA RATE 200 PPM; for mortality at 400 ppm: SM & MA RATE 400 PPM
# How it was run: (§1)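 Foliar spray to runoff (10 psi), 1 h drying; aqueous dilutions from acetone/alcohol emulsifier stock. Mortality (%) after standard exposure.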
# [10] = test system: Twospotted spider mites (Tetranychus urticae Koch); experiment: Mite/insect screen, SM; details: for mortality at 200 ppm / mortality at 400 ppm: Tetranychus urticae, percent mortality, SAW, read-out: SM RESULTS %; for mortality at 200 ppm: SM & MA RATE 200 PPM; for mortality at 400 ppm: SM & MA RATE 400 PPM
# How it was run: as §1
# [11] = test system: melon aphids (Aphis gossypii Glover); experiment: Mite/insect screen, MA; details: Aphis gossypii, percent mortality, SAW, read-out: MA RESULTS %; for mortality at 200 ppm: SM & MA RATE 200 PPM; for mortality at 400 ppm: SM & MA RATE 400 PPM
# How it was run: as §1
# corn rootworm = experiment: Mite/insect screen, CRW; details: percent mortality, read-out: CRW RESULTS %; for mortality at 12 ppm: CRW RATE 12.00 PPM; for mortality at 24 ppm: CRW RATE 24.00 PPM
# How it was run: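 Following dissolution in equal parts acetone and alcohol with 23 g/L and 13 g/L emulsifier blends and dilution with water, test solutions were scored for percent mortality at the end of standard exposures.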
# [12] = summary statement in the description
SMILES,POWD MDEW [1],RICE BLAST [2],LEAF RUST [3],GRAY MOLD [4],DOWN MDEW [5],LEAF SPOT [6],APPL SCAB [7],LEAF BLOT [8],mortality at 200 ppm [9] [%],mortality at 400 ppm [9] [%],mortality at 200 ppm [10] [%],mortality at 400 ppm [10] [%],"activity as miticides [10, 12]",mortality at 200 ppm [11] [%],mortality at 400 ppm [11] [%],mortality at 12 ppm (corn rootworm) [%],mortality at 24 ppm (corn rootworm) [%],"activity against downy mildew [5, 12]"
"Fc1cccc2c(NCCc3ccc(I)cc3)ccnc12 [Example 11, 8-fluoro-N-[2-(4-iodophenyl)ethyl]-4-quinolinamine]",- (0-19% control at 400 ppm),++ (90-100% control at 400 ppm),+++ (90-100% control at 100 ppm),- (0-19% control at 400 ppm),++ (90-100% control at 400 ppm),+++ (90-100% control at 100 ppm),- (0-19% control at 400 ppm),- (0-19% control at 400 ppm),80,100,0,0,particularly excellent activity,0,0,0,60,
"Fc1cc(F)c2nccc(NCCc3ccc(Br)cc3)c2c1 [Example 12, N-[2-(4-bromophenyl)ethyl]-6,8-difluoro-4-quinolinamine]",+ (20-89% control at 400 ppm),++ (90-100% control at 400 ppm),+++ (90-100% control at 100 ppm),- (0-19% control at 400 ppm),++ (90-100% control at 400 ppm),+++ (90-100% control at 100 ppm),- (0-19% control at 400 ppm),++ (90-100% control at 400 ppm),0,100,0,0,,0,0,0,40,
"FC(F)(F)c1cccc2c(NCCc3ccc(Br)cc3)ccnc12 [Example 13, N-[2-(4-bromophenyl)ethyl]-8-(trifluoromethyl)-4-quinolinamine]",- (0-19% control at 400 ppm),++ (90-100% control at 400 ppm),++ (90-100% control at 400 ppm),- (0-19% control at 400 ppm),++ (90-100% control at 400 ppm),- (0-19% control at 400 ppm),- (0-19% control at 400 ppm),- (0-19% control at 400 ppm),0,0,0,0,,0,0,0,0,
"Cc1ccc2nccc(NCCc3ccc(Cl)cc3)c2c1 [Example 14, N-[2-(4-chlorophenyl)ethyl]-6-methyl-4-quinolinamine]",- (0-19% control at 400 ppm),+ (20-89% control at 400 ppm),+ (20-89% control at 400 ppm),- (0-19% control at 400 ppm),+++ (90-100% control at 100 ppm),+++ (90-100% control at 100 ppm),- (0-19% control at 400 ppm),- (0-19% control at 400 ppm),0,0,0,0,,0,0,0,0,particularly excellent activity
"Cc1cc(C)c2nccc(NCCc3ccc(Cl)cc3)c2c1 [Example 15, N-[2-(4-chlorophenyl)ethyl]-6,8-dimethyl-4-quinolinamine]",- (0-19% control at 400 ppm),+ (20-89% control at 400 ppm),+ (20-89% control at 400 ppm),- (0-19% control at 400 ppm),+++ (90-100% control at 100 ppm),+++ (90-100% control at 100 ppm),+ (20-89% control at 400 ppm),- (0-19% control at 400 ppm),0,0,0,0,,0,0,0,0,
"COc1ccc2nccc(NCCc3ccc(Cl)cc3)c2c1 [Example 16, N-[2-(4-chlorophenyl)ethyl]-6-methoxy-4-quinolinamine]",- (0-19% control at 400 ppm),+ (20-89% control at 400 ppm),+ (20-89% control at 400 ppm),- (0-19% control at 400 ppm),+++ (90-100% control at 100 ppm),+++ (90-100% control at 100 ppm),- (0-19% control at 400 ppm),- (0-19% control at 400 ppm),0,0,0,0,,0,0,0,0,
"CC(CNc1ccnc2ccccc12)(c1ccccc1)c1ccccc1 [Example 34, N-(2,2-diphenylpropyl)-4-quinolinamine]",+ (20-89% control at 400 ppm),+ (20-89% control at 400 ppm),++ (90-100% control at 400 ppm),- (0-19% control at 400 ppm),+++ (90-100% control at 100 ppm),+ (20-89% control at 400 ppm),- (0-19% control at 400 ppm),- (0-19% control at 400 ppm),0,,0,,,0,,0,,
"Fc1ccc(CCNc2ccnc3ccccc23)cc1 [Example 35, N-[2-(4-fluorophenyl)ethyl]-4-quinolinamine]",+ (20-89% control at 400 ppm),+ (20-89% control at 400 ppm),+ (20-89% control at 400 ppm),- (0-19% control at 400 ppm),+++ (90-100% control at 100 ppm),+++ (90-100% control at 100 ppm),- (0-19% control at 400 ppm),- (0-19% control at 400 ppm),0,,0,,,0,,0,,
